Source: patent US7449495B2, “Retinoid derivatives with antiangiogenic, antitumoral and proapoptotic activities” (Sigma-Tau Industrie Farmaceutiche Riunite S.p.A., priority 2001, dated 2008)

Test system: osteosarcoma U2OS
Assay: Cytotoxicity test (sulphorodamine B), U2OS
Format: cell-based
Conditions: Homo sapiens, 24 h incubation, survival 48 h after removal
Text: Different cell lines deriving from solid tumors were also used. • 1. Human prostate carcinoma PC3 and DU145. These cell lines were maintained in RPMI 1640 medium containing 10% FCS, 1% sodium pyruvate and 1% glutamine; • 2. Human colon adenocarcinoma LoVo. This cell line was maintained in HAM's F-12 medium, containing 10% FCS and 1% glutamine. • 3. Human ovarian carcinoma such as A2780 and A2780/Dx, sensitive and resistant to drugs, respectively (doxorubicin, taxol, etoposide, vincristine); IGROV-1 and IGROV-1/Pt, sensitive and resistant to platinum-based chemotherapy, respectively, were maintained in RPMI 1640 medium containing 10% FCS, 1% sodium pyruvate and 1% glutamine; • 4. Human melanoma MeWo and MeS 2.21, glioblastoma GBM, no small cell lung carcinomas A431, NCI—H460, osteosarcomas SAOS and U2OS were maintained in RPMI 1640 medium containing 10% FCS, 1% sodium pyruvate and 1% glutamine.
The cytotoxicity tests were carried out using NB4 or HL-60 cells in suspension (10000/well). The cells were seeded in a volume of 250 μl in 96 well plates and incubated for 24 hours at 37° C. […] The optical density was measured using a Multiskan spectrophotometer at 540 nm. […]
Cell survival was determined by incubation with ST1926 for 24 hours, 48 hours after the removal of the compound. […]

## O=C(O)/C=C/c1ccc(-c2ccc(O)c(C34CC5CC(CC(C5)C3)C4)c2)cc1 [ST1926, E-4-(3-(1-adamantyl)-4-hydroxyphenyl)cinnamic acid]
  IC50: 260 nM
